Measurements taken from PubChem BioAssay (NCI).
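Where inhibition never reached the appropriate level, the endpoint shown equals the highest concentration tested. Otherwise, values were interpolated linearly from a five-concentration, 48-hour dose response in 96-well plates. The concentration for full growth arrest is given as TGI.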

Columns and labels:
Experiment in all cases: growth of human tumour cells (NCI), 48 h
BT-549 breast = system: BT-549 breast
HCT-116 colon = system: HCT-116 colon
M14 melanoma = system: M14 melanoma
MDA-MB-435 = system: MDA-MB-435
NCI-H23 lung = system: NCI-H23 lung
NCI-H460 lung = system: NCI-H460 lung
OVCAR-4 ovarian = system: OVCAR-4 ovarian
OVCAR-5 ovarian = system: OVCAR-5 ovarian
SK-MEL-2 melanoma = system: SK-MEL-2 melanoma
SNB-75 CNS = system: SNB-75 CNS

C/C(=N/NC(=S)Nc1ccccc1Cl)c1ccccn1
TGI (BT-549 breast): 19.9 µM | TGI (HCT-116 colon): 14.2 µM | TGI (M14 melanoma): 3.42 µM | TGI (MDA-MB-435): 17.1 µM | TGI (NCI-H23 lung): 32.8 µM | TGI (NCI-H460 lung): 9.85 µM | TGI (OVCAR-4 ovarian): 14.5 µM | TGI (OVCAR-5 ovarian): 5.26 µM | TGI (SK-MEL-2 melanoma): 9.47 µM | TGI (SNB-75 CNS): 30.5 µM

S=c1ssc2c3ssc(=S)c3n(Cc3ccccc3)c12
TGI (BT-549 breast): > 100 µM | TGI (HCT-116 colon): > 100 µM | TGI (M14 melanoma): > 100 µM | TGI (MDA-MB-435): > 100 µM | TGI (NCI-H23 lung): > 100 µM | TGI (NCI-H460 lung): > 100 µM | TGI (OVCAR-4 ovarian): > 100 µM | TGI (OVCAR-5 ovarian): > 100 µM | TGI (SK-MEL-2 melanoma): > 100 µM | TGI (SNB-75 CNS): > 100 µM

CCCCCCCCCOC(=O)c1cnc(Cl)cn1
TGI (BT-549 breast): 63.3 µM | TGI (HCT-116 colon): 31.5 µM | TGI (M14 melanoma): 36.3 µM | TGI (MDA-MB-435): 40.8 µM | TGI (NCI-H23 lung): 33 µM | TGI (NCI-H460 lung): 41.5 µM | TGI (OVCAR-4 ovarian): 71.1 µM | TGI (OVCAR-5 ovarian): 70.8 µM | TGI (SK-MEL-2 melanoma): 40.2 µM | TGI (SNB-75 CNS): 51.5 µM

COc1ccc(OC)c(C2CCc3nc4nc(N)nc(N)c4cc3C2)c1 (stereo not given)
TGI (BT-549 breast): 16.6 µM | TGI (HCT-116 colon): 3.46 µM | TGI (M14 melanoma): 3.44 µM | TGI (MDA-MB-435): 4.09 µM | TGI (NCI-H23 lung): 38.3 µM | TGI (NCI-H460 lung): 19.2 µM | TGI (OVCAR-4 ovarian): 4.14 µM | TGI (OVCAR-5 ovarian): 23.3 µM | TGI (SK-MEL-2 melanoma): 4.35 µM | TGI (SNB-75 CNS): 4.1 µM

CCOC(=O)c1nc2cc(N3CCOCC3)c(F)cc2[nH]c1=O
TGI (BT-549 breast): > 100 µM | TGI (HCT-116 colon): > 100 µM | TGI (M14 melanoma): > 100 µM | TGI (MDA-MB-435): > 100 µM | TGI (NCI-H23 lung): > 100 µM | TGI (NCI-H460 lung): > 100 µM | TGI (OVCAR-4 ovarian): > 100 µM | TGI (OVCAR-5 ovarian): > 100 µM | TGI (SK-MEL-2 melanoma): > 100 µM | TGI (SNB-75 CNS): > 100 µM

COc1c2c(c(OC)c3c1c(=O)c1ccccc1n3C)OCO2
TGI (BT-549 breast): > 100 µM | TGI (HCT-116 colon): > 91.6 µM | TGI (M14 melanoma): > 100 µM | TGI (MDA-MB-435): 6.46 µM | TGI (NCI-H23 lung): > 100 µM | TGI (NCI-H460 lung): 51.2 µM | TGI (OVCAR-4 ovarian): > 100 µM | TGI (OVCAR-5 ovarian): > 100 µM | TGI (SK-MEL-2 melanoma): > 100 µM | TGI (SNB-75 CNS): > 100 µM

Cc1[nH]c2ncn3nc(C(Cl)(Cl)Cl)nc3c2c1Cc1ccccc1
TGI (BT-549 breast): > 100 µM | TGI (HCT-116 colon): > 100 µM | TGI (M14 melanoma): > 100 µM | TGI (MDA-MB-435): > 100 µM | TGI (NCI-H23 lung): > 100 µM | TGI (NCI-H460 lung): > 100 µM | TGI (OVCAR-4 ovarian): > 100 µM | TGI (OVCAR-5 ovarian): > 100 µM | TGI (SK-MEL-2 melanoma): > 100 µM | TGI (SNB-75 CNS): > 100 µM

Clc1ccc(-c2nn3c(CCCCCCCCc4nnc5sc(-c6ccc(Cl)cc6)nn45)nnc3s2)cc1
TGI (BT-549 breast): > 79.5 µM | TGI (HCT-116 colon): 75 µM | TGI (M14 melanoma): 67.5 µM | TGI (MDA-MB-435): > 88 µM | TGI (NCI-H23 lung): > 92.6 µM | TGI (NCI-H460 lung): > 100 µM | TGI (OVCAR-4 ovarian): > 64.6 µM | TGI (OVCAR-5 ovarian): > 100 µM | TGI (SK-MEL-2 melanoma): > 70.5 µM | TGI (SNB-75 CNS): 75.3 µM

CCC1(C)C=Cc2c(cc(OC)c3c(=O)c4ccccc4n(C)c23)O1 (stereo not given)
TGI (BT-549 breast): > 10 µM | TGI (HCT-116 colon): > 10 µM | TGI (M14 melanoma): > 10 µM | TGI (MDA-MB-435): > 10 µM | TGI (NCI-H23 lung): > 10 µM | TGI (NCI-H460 lung): > 10 µM | TGI (OVCAR-4 ovarian): > 10 µM | TGI (OVCAR-5 ovarian): > 10 µM | TGI (SK-MEL-2 melanoma): > 10 µM | TGI (SNB-75 CNS): > 10 µM

CC(C)=CCC[C@]1(C)CC[C@]2(C)C3CCC(=C(C)C)[C@@H](CCCO)[C@]3(C)CC[C@@]2(C)C1 (stereo not given in full)
TGI (BT-549 breast): > 100 µM | TGI (HCT-116 colon): > 100 µM | TGI (M14 melanoma): > 100 µM | TGI (MDA-MB-435): > 100 µM | TGI (NCI-H23 lung): > 100 µM | TGI (NCI-H460 lung): > 100 µM | TGI (OVCAR-4 ovarian): > 100 µM | TGI (OVCAR-5 ovarian): > 100 µM | TGI (SK-MEL-2 melanoma): 71.5 µM | TGI (SNB-75 CNS): > 100 µM

CN1CCCN2CCN(C)CCN(CC1)CC2
TGI (BT-549 breast): > 100 µM | TGI (HCT-116 colon): > 100 µM | TGI (M14 melanoma): > 100 µM | TGI (MDA-MB-435): > 100 µM | TGI (NCI-H23 lung): > 100 µM | TGI (NCI-H460 lung): > 100 µM | TGI (OVCAR-4 ovarian): > 100 µM | TGI (OVCAR-5 ovarian): > 100 µM | TGI (SK-MEL-2 melanoma): > 100 µM | TGI (SNB-75 CNS): > 100 µM

CCOc1c2ccsc2c(OCC)c2ccsc12
TGI (BT-549 breast): > 100 µM | TGI (HCT-116 colon): > 100 µM | TGI (M14 melanoma): > 100 µM | TGI (MDA-MB-435): 3.15 µM | TGI (NCI-H23 lung): > 78 µM | TGI (NCI-H460 lung): > 100 µM | TGI (OVCAR-4 ovarian): > 100 µM | TGI (OVCAR-5 ovarian): > 100 µM | TGI (SK-MEL-2 melanoma): > 100 µM | TGI (SNB-75 CNS): > 28.3 µM

CCOC(=O)c1cc2cc(N(C(C)=O)C(C)=O)ccc2s1
TGI (BT-549 breast): 91.5 µM | TGI (HCT-116 colon): > 100 µM | TGI (M14 melanoma): > 100 µM | TGI (MDA-MB-435): > 100 µM | TGI (NCI-H23 lung): > 100 µM | TGI (NCI-H460 lung): > 100 µM | TGI (OVCAR-4 ovarian): > 100 µM | TGI (OVCAR-5 ovarian): 73.8 µM | TGI (SK-MEL-2 melanoma): 51.6 µM | TGI (SNB-75 CNS): 39.9 µM
